Measurements taken from patent publication EP2764866A1, “Inhibitors of nedd8-activating enzyme” (IP Gesellschaft für Management mbH, priority 2013, dated 2014).
In brackets after ≈: the same amount, converted by molar mass. Counter-ions that a name gives are not always drawn. Like-named read-outs stand apart in the source and are kept apart here. Values belong to the molecule of their own block, whether it stands above or below them.

Columns and labels:
[1] = from COC(=O)[C@@H]1C[C@@H](Oc2nc3cc(OC)ccc3nc2C#CCCC[C@@H]2C[C@H]2OC(=O)N[C@H](C(=O)O)C(C)(C)C)CN1; amide bond; HATU; DMAc; 86.2 mM; 0.0 °C; 12.0 h
human c-mpl-Ba/F3 cell = experiment: Mouse oral administration test (plasma activity in the c-mpl-Ba/F3 proliferation system); format: in vivo, male ICR mice; conditions: for activity at 3 mg/kg: Mus musculus, po, 2 h; for Cell proliferation activity (%) 0.3%: 0.3% blood plasma concentration; for oral absorption: conclusion from the mouse oral administration test
Human c-mpl-Ba/F3 cells = experiment: Cell proliferation test for human c-mpl-Ba/F3 cells; format: cell-based
Description: Test Example I Cell Proliferation Test for Human c-mpl-Ba/F3 Cells: Human c-mpl-Ba/F3 cells at a concentration of 2 x 10^5 cells/mL were cultured at 37 °C on a 96 well microplate using RPMI 1640 culture medium (100 microliter/well) containing 10% fetal calf serum to which various concentrations of the test compound was added. After 24 hours from the start of culturing, 10 microliter/well of WST-1/1-methoxy PMS (cell measuring kit, Dojin) was added. Immediately after the addition and two hours later, the A450/A650 absorbance was measured using a microplate reader (Model 3350, Bio-Rad), and the increase in absorbance after 2 hours was interpreted to represent the proliferation activity of each test compound. […] Furthermore, the maximum cell proliferation activity of compound X maleic acid salt C type crystals ({drug1b}) was 102%, based on the maximum cell proliferation activity of rhTPO being 100%. […] Therefore, compound X maleic acid salt C type crystals ({drug1b}) are useful for treating and preventing various types of thrombocytopenia by having a thrombocytosis effect. […]

[2] = tested on: Ba/F3 cells where c-mpl was not introduced; experiment: Cell proliferation test in Ba/F3 cells without c-mpl; format: cell-based
[3] = Pharmacokinetics of Compound [1] in Phase I and II studies; conditions: continuous daily dosing regimen, doses of 400 mg/day and above
HCC78 cells = experiment: cells; conditions: Homo sapiens, HCC78, read-out: IC50 for inhibition of HCC78 cell viability
[4] = pH 1, compared to the free acid form
[5] = dosed at 10mg/kg, compared to the free acid form
[6] = Hygroscopicity (water absorbed); format: physicochemical
physchem = conditions: pH 1.2, simulated gastric fluid
pKa = format: physicochemical
Excerpt: Suitable alkalizing agents include but are not limited to organic and inorganic basic compounds of a wide range of aqueous solubilities and molecular weights and mixtures thereof. Examples of inorganic basic salts include ammonium hydroxide, alkali metal salts, alkaline earth metal salts such as magnesium oxide, magnesium hydroxide, calcium hydroxide, sodium hydroxide, potassium hydroxide, aluminium hydroxide, potassium carbonate, sodium bicarbonate and the like and mixtures thereof. In particular, an alkalizing agent is selected from magnesium oxide, calcium carbonate, calcium phosphate and combinations thereof. More particularly, the alkalizing agent is magnesium oxide. […] Examples of precipitation inhibitors include but are not limited to polyvinyl pyrrolidone, for example those products known as PVP K30, PVP K29/32 and PVPP XL, and hydroxy propyl methyl cellulose (HPMC), for example those products known as […]® low viscous hypromellose-based water-soluble film coating agent. […] As used herein, the term "oral dosage form" refers to physically discrete units suitable as unitary dosages for humans and other mammals, each unit containing a predetermined quantity of a therapeutic agent in association with one or more pharmaceutically acceptable carrier. […]

[7] = 3 mg/kg orally, blood 2 hours after administration, maximum activity of each test compound = 100%

Structure (SMILES): COC(=O)[C@@H]1C[C@@H]2CN1C(=O)[C@H](C(C)(C)C)NC(=O)O[C@@H]1C[C@H]1CCCC#Cc1nc3ccc(OC)cc3nc1O2
ring closure, yield of all isomers [1]: 88.6%

Structure (SMILES): O=C(Nc1nc(-c2cc(Cl)cs2)c(N2CCN(C3CCCCC3)CC2)s1)c1cnc(N2CCC(C(=O)O)CC2)c(Cl)c1 [1-(3-chloro-5-{[4-(4-chlorothiophen-2-yl)-5-(4-cyclohexylpiperazin-1-yl)thiazol-2-yl]carbamoyl}pyridin-2-yl) piperidine-4-carboxylic acid maleic acid salt, reference compound]
activity at 3 mg/kg (human c-mpl-Ba/F3 cell; 3 mg/kg orally, blood 2 hours after administration, 10% blood plasma concentration, maximum activity of each test compound = 100%, read-out: Cell proliferation activity (%) 10%): > 80%

EC50 (Human c-mpl-Ba/F3 cells; Homo sapiens, 24 hours culture, WST-1/1-methoxy PMS readout, read-out: cell proliferation effect, EC50): 0.002 µM
Structure (SMILES): O=C(Nc1nc(-c2cc(Cl)cs2)c(N2CCN(C3CCCCC3)CC2)s1)c1cnc(N2CCC(C(=O)O)CC2)c(Cl)c1 [1-(3-chloro-5-{[4-(4-chlorothiophen-2-yl)-5-(4-cyclohexylpiperazin-1-yl)thiazol-2-yl]carbamoyl}pyridin-2-yl) piperidine-4-carboxylic acid maleic acid salt]
activity at 3 mg/kg (human c-mpl-Ba/F3 cell; 3 mg/kg orally, blood 2 hours after administration, 0.1% blood plasma concentration, maximum activity of each test compound = 100%, read-out: Cell proliferation activity (%) 0.1%): 30%

Structure (SMILES): O=C(Nc1nc(-c2cc(Cl)cs2)c(N2CCN(C3CCCCC3)CC2)s1)c1cnc(N2CCC(C(=O)O)CC2)c(Cl)c1 [Compound X hydrochloride, reference compound]
Cell proliferation activity (%) 0.3% (human c-mpl-Ba/F3 cell; [7]): < 10%
Cell proliferation activity (%) 10% (human c-mpl-Ba/F3 cell; 3 mg/kg orally, blood 2 hours after administration, 10% blood plasma concentration, maximum activity of each test compound = 100%): 34%

Structure (SMILES): O=C(Nc1nc(-c2cc(Cl)cs2)c(N2CCN(C3CCCCC3)CC2)s1)c1cnc(N2CCC(C(=O)O)CC2)c(Cl)c1.O=C(O)/C=C\C(=O)O [Compound X maleic acid salt A type crystal] [1-(3-chloro-5-{[4-(4-chlorothiophen-2-yl)-5-(4-cyclohexylpiperazin-1-yl)thiazol-2-yl]carbamoyl}pyridin-2-yl) piperidine-4-carboxylic acid maleic acid salt, reference compound]
Cell proliferation activity (%) 0.3% (human c-mpl-Ba/F3 cell; [7]): 55%
oral absorption (human c-mpl-Ba/F3 cell; listed as compound X maleic acid salt A type crystals): excellent oral absorption

Structure (SMILES): O=C(Nc1nc(-c2cc(Cl)cs2)c(N2CCN(C3CCCCC3)CC2)s1)c1cnc(N2CCC(C(=O)O)CC2)c(Cl)c1.O=C(O)/C=C\C(=O)O [Compound X maleic acid salt B type crystal] [1-(3-chloro-5-{[4-(4-chlorothiophen-2-yl)-5-(4-cyclohexylpiperazin-1-yl)thiazol-2-yl]carbamoyl}pyridin-2-yl) piperidine-4-carboxylic acid maleic acid salt]
Cell proliferation activity (%) 0.3% (human c-mpl-Ba/F3 cell; [7]): < 10%
oral absorption (human c-mpl-Ba/F3 cell; listed as compound X maleic acid B type crystals): inferior oral absorption

Structure (SMILES): O=C(Nc1nc(-c2cc(Cl)cs2)c(N2CCN(C3CCCCC3)CC2)s1)c1cnc(N2CCC(C(=O)O)CC2)c(Cl)c1.O=C(O)/C=C\C(=O)O [Compound X maleic acid salt C type crystal] [1-(3-chloro-5-{[4-(4-chlorothiophen-2-yl)-5-(4-cyclohexylpiperazin-1-yl)thiazol-2-yl]carbamoyl}pyridin-2-yl) piperidine-4-carboxylic acid maleic acid salt]
maximum cell proliferation activity (Human c-mpl-Ba/F3 cells; based on the maximum cell proliferation activity of rhTPO being 100%): 102%
Cell proliferation activity (%) 0.3% (human c-mpl-Ba/F3 cell; [7]): > 80%
oral absorption (human c-mpl-Ba/F3 cell): excellent oral absorption
cell proliferation effect [2]: not observed

exposure [3]: prolonged over-proportional exposure
Structure (SMILES): CN1CCN(c2ccc3nc(-c4c(N)c5c(F)cccc5[nH]c4=O)[nH]c3c2)CC1 [Compound [1]]

IC50 (HCC78 cells): ~0.059 µM
Structure (SMILES): C[C@@H](Oc1cc(-c2cnn(C3CCNCC3)c2)cnc1N)c1c(Cl)ccc(F)c1Cl [Crizotinib, 3-[(R)-1-(2,6-dichloro-3-fluoro-phenyl)-ethoxy]-5-(1-piperidin-4-yl-1-H -pyrazol-4-yl)-pyridin-2-ylamine]

Structure (SMILES): CCC(CC)Nc1c(Nc2ccc(Cl)c(S(=O)(=O)N(C)OC)c2O)c(=O)c1=O [choline salt, 6-chloro-3-[2-(1-ethyl-propylamino)-3,4-dioxo-cyclobut-1-enylamino]-2-hydroxy-N-methoxy-N-methyl-benzenesulfonamide choline]
dissolution rate [4]: much improved
oral exposure [5]: much improved
amount of water absorbed ([6]; after 1 day at 80% humidity): 0.7 % by weight
amount of water absorbed ([6]; after 1 day at 92% humidity): 0.6 % by weight

Structure (SMILES): CCC(CC)Nc1c(Nc2ccc(Cl)c(S(=O)(=O)N(C)OC)c2O)c(=O)c1=O [free acid, 6-chloro-3-[2-(1-ethyl-propylamino)-3,4-dioxo-cyclobut-1-enylamino]-2-hydroxy-N-methoxy-N-methyl-benzenesulfonamide, reference compound]
solubility (physchem): 1 µg/mL (≈ 2.32 µM)
pKa (pKa): 5.4
amount of water absorbed ([6]; after 1 day at 80% humidity): 2.4 % by weight
amount of water absorbed ([6]; after 1 day at 92% humidity): 2.8 % by weight
